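Grown in 96-well plates, cells were treated for 48 hours with each compound at five concentrations. Insufficient inhibition: endpoint recorded as highest concentration tested. GI50 marks 50% less growth. TGI marks complete inhibition of growth.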
What was measured:
Assay in all cases: NCI tumour cell line growth inhibition, 48 h
786-0 renal = test system: 786-0 renal
A498 renal = test system: A498 renal
A549 NSCLC = test system: A549 NSCLC
ACHN renal = test system: ACHN renal
BT-549 breast = test system: BT-549 breast
CAKI-1 renal = test system: CAKI-1 renal
CCRF-CEM leukemia = test system: CCRF-CEM leukemia
COLO 205 colon = test system: COLO 205 colon
DU-145 prostate = test system: DU-145 prostate
EKVX NSCLC = test system: EKVX NSCLC
HCC-2998 colon = test system: HCC-2998 colon
HCT-116 colon = test system: HCT-116 colon
HCT-15 colon = test system: HCT-15 colon
HL-60(TB) leukemia = test system: HL-60(TB) leukemia
HOP-62 NSCLC = test system: HOP-62 NSCLC
HOP-92 NSCLC = test system: HOP-92 NSCLC
HS 578T breast = test system: HS 578T breast
HT29 colon = test system: HT29 colon
IGROV1 ovarian = test system: IGROV1 ovarian
K-562 leukemia = test system: K-562 leukemia
KM12 colon = test system: KM12 colon
LOX IMVI melanoma = test system: LOX IMVI melanoma
M14 melanoma = test system: M14 melanoma
MALME-3M melanoma = test system: MALME-3M melanoma
MCF7 breast = test system: MCF7 breast
MDA-MB-231 breast = test system: MDA-MB-231 breast
MDA-MB-435 = test system: MDA-MB-435
MOLT-4 leukemia = test system: MOLT-4 leukemia
NCI-H460 lung = test system: NCI-H460 lung
NCI-H522 lung = test system: NCI-H522 lung
NCI/ADR-RES ovarian = test system: NCI/ADR-RES ovarian
OVCAR-3 ovarian = test system: OVCAR-3 ovarian
OVCAR-4 ovarian = test system: OVCAR-4 ovarian
OVCAR-5 ovarian = test system: OVCAR-5 ovarian
OVCAR-8 ovarian = test system: OVCAR-8 ovarian
PC-3 prostate = test system: PC-3 prostate
RPMI-8226 leukemia = test system: RPMI-8226 leukemia
RXF 393 renal = test system: RXF 393 renal
SF-268 CNS = test system: SF-268 CNS
SF-295 CNS = test system: SF-295 CNS
SF-539 CNS = test system: SF-539 CNS
SK-MEL-2 melanoma = test system: SK-MEL-2 melanoma
SK-MEL-28 melanoma = test system: SK-MEL-28 melanoma
SK-MEL-5 melanoma = test system: SK-MEL-5 melanoma
SK-OV-3 ovarian = test system: SK-OV-3 ovarian
SN12C renal = test system: SN12C renal
SNB-19 CNS = test system: SNB-19 CNS
SNB-75 CNS = test system: SNB-75 CNS
SR leukemia = test system: SR leukemia
SW-620 colon = test system: SW-620 colon
T-47D breast = test system: T-47D breast
TK-10 renal = test system: TK-10 renal
U251 CNS = test system: U251 CNS
UACC-257 melanoma = test system: UACC-257 melanoma
UACC-62 melanoma = test system: UACC-62 melanoma
UO-31 renal = test system: UO-31 renal

In the case of CN1CCN(Cc2ccc(NC(=O)c3cncc(C#Cc4cnn5cccnc45)c3)cc2C(F)(F)F)CC1, the GI50 (786-0 renal) was 1.83 µM, the TGI (786-0 renal) was 3.3 µM and the GI50 (A498 renal) was 8.19 µM. It also gave a TGI (A498 renal) of 19.8 µM, a GI50 (A549 NSCLC) of 2.85 µM and a TGI (A549 NSCLC) of 9.01 µM. It also gave a GI50 (ACHN renal) of 2.29 µM, a TGI (ACHN renal) of 6.84 µM and a GI50 (BT-549 breast) of 4.63 µM. For the same molecule, the TGI (BT-549 breast) was 14.5 µM, the GI50 (CAKI-1 renal) was 1.8 µM and the TGI (CAKI-1 renal) was 7.53 µM. The GI50 (CCRF-CEM leukemia) was 2.28 µM, the TGI (CCRF-CEM leukemia) was 6.47 µM and the GI50 (COLO 205 colon) was 1.4 µM. It also gave a TGI (COLO 205 colon) of 3.31 µM, a GI50 (DU-145 prostate) of 2.94 µM and a TGI (DU-145 prostate) of 9.25 µM. For the same molecule, the GI50 (EKVX NSCLC) was 5.01 µM, the TGI (EKVX NSCLC) was 16.7 µM and the GI50 (HCC-2998 colon) was 2.4 µM. It also gave a TGI (HCC-2998 colon) of 10.8 µM, a GI50 (HCT-116 colon) of 0.941 µM and a TGI (HCT-116 colon) of 2.62 µM. It also gave a GI50 (HCT-15 colon) of 2.8 µM, a TGI (HCT-15 colon) of 10.2 µM and a GI50 (HL-60(TB) leukemia) of 0.598 µM. The TGI (HL-60(TB) leukemia) was 2.67 µM, the GI50 (HOP-62 NSCLC) was 2.75 µM and the TGI (HOP-62 NSCLC) was 9.35 µM. It also gave a GI50 (HOP-92 NSCLC) of 0.376 µM, a TGI (HOP-92 NSCLC) of 4 µM and a GI50 (HS 578T breast) of 2.65 µM. For the same molecule, the TGI (HS 578T breast) was 10.3 µM, the GI50 (HT29 colon) was 1.36 µM and the TGI (HT29 colon) was 5.58 µM. It also gave a GI50 (IGROV1 ovarian) of 2.12 µM, a TGI (IGROV1 ovarian) of 7.63 µM and a TGI (K-562 leukemia) of 1.32 µM. The GI50 (KM12 colon) was 0.0255 µM, the TGI (KM12 colon) was 4.38 µM and the GI50 (LOX IMVI melanoma) was 1.23 µM. The TGI (LOX IMVI melanoma) was 3.12 µM, the GI50 (M14 melanoma) was 1.06 µM and the TGI (M14 melanoma) was 3.34 µM. It also gave a GI50 (MALME-3M melanoma) of 0.322 µM, a TGI (MALME-3M melanoma) of 1.83 µM and a GI50 (MCF7 breast) of 1.29 µM. For the same molecule, the TGI (MCF7 breast) was 4.39 µM, the GI50 (MDA-MB-231 breast) was 1.39 µM and the TGI (MDA-MB-231 breast) was 7.58 µM. It also gave a GI50 (MDA-MB-435) of 2 µM, a TGI (MDA-MB-435) of 8.71 µM and a GI50 (MOLT-4 leukemia) of 2.13 µM. It also gave a TGI (MOLT-4 leukemia) of 7.02 µM, a GI50 (NCI-H460 lung) of 2 µM and a TGI (NCI-H460 lung) of 4.72 µM. The GI50 (NCI-H522 lung) was 1.71 µM, the TGI (NCI-H522 lung) was 3.51 µM and the GI50 (NCI/ADR-RES ovarian) was 3.49 µM. The TGI (NCI/ADR-RES ovarian) was 12.7 µM, the GI50 (OVCAR-3 ovarian) was 3.88 µM and the TGI (OVCAR-3 ovarian) was 12.9 µM. For the same molecule, the GI50 (OVCAR-4 ovarian) was 2.88 µM, the TGI (OVCAR-4 ovarian) was 13.1 µM and the GI50 (OVCAR-5 ovarian) was 2.45 µM. The TGI (OVCAR-5 ovarian) was 12.1 µM, the GI50 (OVCAR-8 ovarian) was 2.87 µM and the TGI (OVCAR-8 ovarian) was 10.4 µM. The GI50 (PC-3 prostate) was 3.06 µM, the TGI (PC-3 prostate) was 13.3 µM and the GI50 (RPMI-8226 leukemia) was 1.83 µM. It also gave a TGI (RPMI-8226 leukemia) of 5.1 µM, a GI50 (RXF 393 renal) of 2.25 µM and a TGI (RXF 393 renal) of 4.52 µM. It also gave a GI50 (SF-268 CNS) of 2.54 µM, a TGI (SF-268 CNS) of 6.33 µM and a GI50 (SF-295 CNS) of 10.9 µM. For the same molecule, the TGI (SF-295 CNS) was 23.2 µM, the GI50 (SF-539 CNS) was 1.12 µM and the TGI (SF-539 CNS) was 2.75 µM. It also gave a GI50 (SK-MEL-2 melanoma) of 1.04 µM, a TGI (SK-MEL-2 melanoma) of 2.55 µM and a GI50 (SK-MEL-28 melanoma) of 1.86 µM. For the same molecule, the TGI (SK-MEL-28 melanoma) was 8.55 µM, the GI50 (SK-MEL-5 melanoma) was 2.6 µM and the TGI (SK-MEL-5 melanoma) was 8.94 µM. The GI50 (SK-OV-3 ovarian) was 3.3 µM, the TGI (SK-OV-3 ovarian) was 10.6 µM and the GI50 (SN12C renal) was 2.66 µM. For the same molecule, the TGI (SN12C renal) was 10.4 µM, the GI50 (SNB-19 CNS) was 4.05 µM and the TGI (SNB-19 CNS) was 12.6 µM. It also gave a GI50 (SNB-75 CNS) of 2.84 µM, a TGI (SNB-75 CNS) of 12.3 µM and a GI50 (SR leukemia) of 2.45 µM. It also gave a TGI (SR leukemia) of 6.4 µM, a GI50 (SW-620 colon) of 1.67 µM and a TGI (SW-620 colon) of 5.01 µM. It also gave a GI50 (T-47D breast) of 6.08 µM, a TGI (T-47D breast) of 22 µM and a GI50 (TK-10 renal) of 3.99 µM. It also gave a TGI (TK-10 renal) of 9.78 µM, a GI50 (U251 CNS) of 3.3 µM and a TGI (U251 CNS) of 14.1 µM. It also gave a GI50 (UACC-257 melanoma) of 2.92 µM, a TGI (UACC-257 melanoma) of 12.2 µM and a GI50 (UACC-62 melanoma) of 2.9 µM. The TGI (UACC-62 melanoma) was 13.3 µM, the GI50 (UO-31 renal) was 2.28 µM and the TGI (UO-31 renal) was 8.57 µM.
